Measurements: patent US20250163066A1, “PROTACs of MALT1” (TEGID THERAPEUTICS, INC., priority 2022, published 2025)

Biological target: MALT1 (Homo sapiens (Human), UniProt Q9UDY8)
Experiment: MALT1 enzymatic activity inhibition (fluorescence, Ac-LRSR-AMC substrate)
Type: biochemical
Conditions: recombinant MALT1 1.5 ng/μl, Ac-LRSR-AMC 1 μM
Protocol: Compound activity was determined using recombinant MALT1 protein (Creative Biomart, Cat #MALT1-28H) and Ac-LRSR-AMC Substrate in an in vitro enzymatic reaction. The enzymatic assay used to determine activity was a Fluorescence assay using a Microplate Reader ClarioStar Plus. The enzymatic reaction was carried out in 1× Assay Buffer (50 mM HEPES pH 7.2-7.4, 100 mM NaCl, 900 mM Sodium citrate, 10 mM DTT). The compounds were dispensed on a 384-well Diamond Well Plate (Axygen, Cat #P-384-120SQ-C—S) using the Biomek FX liquid handling system at 100× solutions of compounds in DMSO. 2.5×MALT1 mix (final concentration 1.5 ng/μl of MALT1) was prepared in 1× Assay Buffer and 8 μl of mixture per well were added into 384w white Reaction Plates with NBS (Corning, Cat #4513). 8 μl of 1× Assay Buffer were used for negative control. Plates were centrifuged for 1 min at 200 g. Next, the compounds were added to Reaction plates using Biomek station via following steps: 1 μl of 100× compounds (in DMSO) was mixed thoroughly with 19 μl of 1× Assay Buffer, then 4 μl of this mixture were added to Reaction plates with 8 μl of MALT1 mix. Plates were centrifuged for 1 min at 200 g and incubated for 10 minutes at rt. Next, 2.5× Ac-LRSR-AMC mix (final concentration 1 μM of Ac-LRSR-AMC) was prepared in 1× Assay Buffer and 8 μl of mixture per well were added to Reaction Plates using Biomek station. Plates were centrifuged for 1 min at 200 g, then the fluorescence was measured immediately using Microplate Reader. Plates were incubated for 30 minutes at 37° C., then for 30 minutes at rt. The fluorescence was measured after the whole incubation using Microplate Reader. The reaction signal was calculated as the subtraction of the first data set values from the second. The % inhibition was then used to calculate the IC50 values. The results of this assay are shown in the Table A. The values of EC50 shown as a letters A-E, where: A≤0.2 μM; 0.2 μM<B≤0.5 μM; 0.5 μM<C≤1 μM; 1<D≤5 μM; E >5.

Chain of MALT1 (Q9UDY8 whole entry): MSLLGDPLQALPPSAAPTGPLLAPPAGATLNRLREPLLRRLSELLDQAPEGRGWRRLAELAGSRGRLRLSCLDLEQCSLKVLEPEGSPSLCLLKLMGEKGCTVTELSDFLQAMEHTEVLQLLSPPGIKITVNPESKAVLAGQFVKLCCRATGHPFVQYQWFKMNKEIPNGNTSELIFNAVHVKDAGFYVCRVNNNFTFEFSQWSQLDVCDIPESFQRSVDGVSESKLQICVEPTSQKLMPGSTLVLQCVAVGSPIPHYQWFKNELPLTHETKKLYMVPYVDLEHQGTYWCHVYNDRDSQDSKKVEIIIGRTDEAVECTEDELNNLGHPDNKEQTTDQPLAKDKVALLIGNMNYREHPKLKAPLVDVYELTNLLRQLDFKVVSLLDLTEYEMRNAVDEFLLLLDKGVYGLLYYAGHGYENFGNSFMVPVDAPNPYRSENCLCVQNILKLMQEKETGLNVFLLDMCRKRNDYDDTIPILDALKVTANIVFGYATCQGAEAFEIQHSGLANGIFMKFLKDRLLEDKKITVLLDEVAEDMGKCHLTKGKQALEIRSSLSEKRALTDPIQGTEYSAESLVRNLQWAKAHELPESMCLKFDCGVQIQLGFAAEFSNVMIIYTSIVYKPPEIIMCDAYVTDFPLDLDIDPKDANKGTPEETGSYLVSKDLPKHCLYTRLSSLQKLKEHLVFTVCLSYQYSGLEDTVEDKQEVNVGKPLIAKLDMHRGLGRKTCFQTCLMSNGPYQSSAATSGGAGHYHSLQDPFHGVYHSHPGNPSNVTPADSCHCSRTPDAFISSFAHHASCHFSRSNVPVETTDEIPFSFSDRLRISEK

Row | EC50 [µM] | Structure (SMILES)
1 | > 5 | O=C(CCOCCN1CCN(c2ccc3c(c2)CN(C2CCC(=O)NC2=O)C3=O)CC1)NCCOc1ncc(Cl)cc1NC(=O)Nc1cnc2nccn2c1C1CCCC1 (stereo not drawn) [Compound 52, N-[2-[[5-chloro-3-[(5-cyclopentylimidazo[1,2-a]pyrimidin-6-yl)carbamoylamino]-2-pyridyl]oxy]ethyl]-3-[2-[4-[2-(2,6-dioxo-3-piperidyl)-1-oxo-isoindolin-5-yl]piperazin-1-yl]ethoxy]propanamide]
2 | ≤ 0.2 | Cc1cc(NC(=O)Nc2cnc3ccnn3c2C2CCCO2)cnc1-c1noc(CCCC(=O)N2CCN(c3ccc4c(c3)CN(C3CCC(=O)NC3=O)C4=O)CC2)n1 (stereo not drawn) [Compound 58, 1-[6-[5-[4-[4-[2-(2,6-dioxo-3-piperidyl)-1-oxo-isoindolin-5-yl]piperazin-1-yl]-4-oxo-butyl]-1,2,4-oxadiazol-3-yl]-5-methyl-3-pyridyl]-3-(7-tetrahydrofuran-2-ylpyrazolo[1,5-a]pyrimidin-6-yl)urea]
3 | ≤ 0.2 | Cc1cc2ncc(NC(=O)Nc3cnc(-c4noc(CCCCC(=O)N5CCN(c6ccc7c(c6)CN(C6CCC(=O)NC6=O)C7=O)CC5)n4)c(C)c3)c(C3CCCC3)n2n1 (stereo not drawn) [Compound 59, 1-(7-cyclopentyl-2-methyl-pyrazolo[1,5-a]pyrimidin-6-yl)-3-[6-[5-[5-[4-[2-(2,6-dioxo-3-piperidyl)-1-oxo-isoindolin-5-yl]piperazin-1-yl]-5-oxo-pentyl]-1,2,4-oxadiazol-3-yl]-5-methyl-3-pyridyl]urea]
4 | ≤ 0.2 | Cc1cc(NC(=O)Nc2cnc3ccnn3c2C2CCCO2)cnc1-c1noc(CCC(=O)N2CCN(c3ccc4c(c3)CN(C3CCC(=O)NC3=O)C4=O)CC2)n1 (stereo not drawn) [Compound 60, 1-[6-[5-[3-[4-[2-(2,6-dioxo-3-piperidyl)-1-oxo-isoindolin-5-yl]piperazin-1-yl]-3-oxo-propyl]-1,2,4-oxadiazol-3-yl]-5-methyl-3-pyridyl]-3-(7-tetrahydrofuran-2-ylpyrazolo[1,5-a]pyrimidin-6-yl)urea]
5 | ≤ 0.2 | Cc1cc(NC(=O)Nc2cnc3ccnn3c2C2CCCC2)cnc1-c1noc(CCCCCC(=O)Nc2ccc3c(c2)CN(C2CCC(=O)NC2=O)C3=O)n1 (stereo not drawn) [Compound 61, 6-[3-[5-[(7-cyclopentylpyrazolo[1,5-a]pyrimidin-6-yl)carbamoylamino]-3-methyl-2-pyridyl]-1,2,4-oxadiazol-5-yl]-N-[2-(2,6-dioxo-3-piperidyl)-1-oxo-isoindolin-5-yl]hexanamide]
6 | ≤ 0.2 | Cc1cc(NC(=O)Nc2cnc3ccnn3c2C2CCCO2)cnc1-c1noc(CCCN2CCN(c3ccc4c(c3)CN(C3CCC(=O)NC3=O)C4=O)CC2)n1 (stereo not drawn) [Compound 62, 1-[6-[5-[3-[4-[2-(2,6-dioxo-3-piperidyl)-1-oxo-isoindolin-5-yl]piperazin-1-yl]propyl]-1,2,4-oxadiazol-3-yl]-5-methyl-3-pyridyl]-3-(7-tetrahydrofuran-2-ylpyrazolo[1,5-a]pyrimidin-6-yl)urea]
7 | ≤ 0.2 | Cc1cc(NC(=O)Nc2cnc3ccnn3c2C2CCCC2)cnc1-c1noc(CCCCCN2CCN(c3ccc4c(c3)CN(C3CCC(=O)N(C)C3=O)C4=O)CC2)n1 (stereo not drawn) [Compound 64, 1-(7-cyclopentylpyrazolo[1,5-a]pyrimidin-6-yl)-3-[5-methyl-6-[5-[5-[4-[2-(1-methyl-2,6-dioxo-3-piperidyl)-1-oxo-isoindolin-5-yl]piperazin-1-yl]pentyl]-1,2,4-oxadiazol-3-yl]-3-pyridyl]urea]
8 | 0.2 to 0.5 | Cc1c(NC(=O)Nc2cnc(-c3noc(CCCCCC(=O)N4CCN(c5ccc6c(c5)CN(C5CCC(=O)NC5=O)C6=O)CC4)n3)c(Cl)c2)cnc2ccnn12 (stereo not drawn) [Compound 65, 1-[5-chloro-6-[5-[6-[4-[2-(2,6-dioxo-3-piperidyl)-1-oxo-isoindolin-5-yl]piperazin-1-yl]-6-oxo-hexyl]-1,2,4-oxadiazol-3-yl]-3-pyridyl]-3-(7-methylpyrazolo[1,5-a]pyrimidin-6-yl)urea]
9 | ≤ 0.2 | CC(C)c1c(NC(=O)Nc2cnc(-c3noc(CCCCCC(=O)N4CCN(c5ccc6c(c5)CN(C5CCC(=O)NC5=O)C6=O)CC4)n3)c(Cl)c2)cnc2ccnn12 (stereo not drawn) [Compound 66, 1-[5-chloro-6-[5-[6-[4-[2-(2,6-dioxo-3-piperidyl)-1-oxo-isoindolin-5-yl]piperazin-1-yl]-6-oxo-hexyl]-1,2,4-oxadiazol-3-yl]-3-pyridyl]-3-(7-isopropylpyrazolo[1,5-a]pyrimidin-6-yl)urea]
10 | ≤ 0.2 | Cc1cc2ncc(NC(=O)Nc3cnc(-c4noc(CCCCCC(=O)N5CCN(c6ccc7c(c6)CN(C6CCC(=O)NC6=O)C7=O)CC5)n4)c(C)c3)c(C3CCCO3)n2n1 (stereo not drawn) [Compound 67, 1-[6-[5-[6-[4-[2-(2,6-dioxo-3-piperidyl)-1-oxo-isoindolin-5-yl]piperazin-1-yl]-6-oxo-hexyl]-1,2,4-oxadiazol-3-yl]-5-methyl-3-pyridyl]-3-(2-methyl-7-tetrahydrofuran-2-yl-pyrazolo[1,5-a]pyrimidin-6-yl)urea]
11 | ≤ 0.2 | Cc1cc(NC(=O)Nc2cnc3ccnn3c2C2CCCC2)cnc1-c1noc(CCCCCCN2CCN(c3ccc4c(c3)CN(C3CCC(=O)NC3=O)C4=O)CC2)n1 (stereo not drawn) [Compound 68, 1-(7-cyclopentylpyrazolo[1,5-a]pyrimidin-6-yl)-3-[6-[5-[6-[4-[2-(2,6-dioxo-3-piperidyl)-1-oxo-isoindolin-5-yl]piperazin-1-yl]hexyl]-1,2,4-oxadiazol-3-yl]-5-methyl-3-pyridyl]urea]
12 | ≤ 0.2 | CC(C)(C)C(=O)OCN1C(=O)CCC(N2Cc3cc(N4CCN(C(=O)CCCCCc5nc(-c6ncc(NC(=O)Nc7cnc8ccnn8c7C7CCCC7)cc6Cl)no5)CC4)ccc3C2=O)C1=O (stereo not drawn) [Compound 70, [3-[5-[4-[6-[3-[3-chloro-5-[(7-cyclopentylpyrazolo[1,5-a]pyrimidin-6-yl)carbamoylamino]-2-pyridyl]-1,2,4-oxadiazol-5-yl]hexanoyl]piperazin-1-yl]-1-oxo-isoindolin-2-yl]-2,6-dioxo-1-piperidyl]methyl 2,2-dimethylpropanoate]
13 | ≤ 0.2 | O=C1CCC(N2Cc3cc(N4CCN(C(=O)CCCc5nc(-c6ncc(NC(=O)Nc7cnc8ccnn8c7C7CCCC7)cc6Cl)no5)CC4)ccc3C2=O)C(=O)N1 (stereo not drawn) [Compound 71, 1-[5-chloro-6-[5-[4-[4-[2-(2,6-dioxo-3-piperidyl)-1-oxo-isoindolin-5-yl]piperazin-1-yl]-4-oxo-butyl]-1,2,4-oxadiazol-3-yl]-3-pyridyl]-3-(7-cyclopentylpyrazolo[1,5-a]pyrimidin-6-yl)urea]
14 | ≤ 0.2 | Cc1cc2ncc(NC(=O)Nc3cnc(-c4noc(CCCCCCN5CCN(c6ccc7c(c6)CN(C6CCC(=O)NC6=O)C7=O)CC5)n4)c(C)c3)c(C3CCCO3)n2n1 (stereo not drawn) [Compound 73, 1-[6-[5-[6-[4-[2-(2,6-dioxo-3-piperidyl)-1-oxo-isoindolin-5-yl]piperazin-1-yl]hexyl]-1,2,4-oxadiazol-3-yl]-5-methyl-3-pyridyl]-3-(2-methyl-7-tetrahydrofuran-2-yl-pyrazolo[1,5-a]pyrimidin-6-yl)urea]
15 | 0.2 to 0.5 | O=C1CCC(N2Cc3cc(N4CCN(C(=O)CCCCCc5nc(-c6ncc(NC(=O)Nc7cnc8ccnn8c7C7CCCC7)cc6F)no5)CC4)ccc3C2=O)C(=O)N1 (stereo not drawn) [Compound 74, 1-(7-cyclopentylpyrazolo[1,5-a]pyrimidin-6-yl)-3-[6-[5-[6-[4-[2-(2,6-dioxo-3-piperidyl)-1-oxo-isoindolin-5-yl]piperazin-1-yl]-6-oxo-hexyl]-1,2,4-oxadiazol-3-yl]-5-fluoro-3-pyridyl]urea]
16 | ≤ 0.2 | O=C1CCC(N2Cc3cc(N4CCN(CCCCc5nc(-c6ncc(NC(=O)Nc7cnc8ccnn8c7C7CCCC7)cc6Cl)no5)CC4)ccc3C2=O)C(=O)N1 (stereo not drawn) [Compound 75, 1-[5-chloro-6-[5-[4-[4-[2-(2,6-dioxo-3-piperidyl)-1-oxo-isoindolin-5-yl]piperazin-1-yl]butyl]-1,2,4-oxadiazol-3-yl]-3-pyridyl]-3-(7-cyclopentylpyrazolo[1,5-a]pyrimidin-6-yl)urea]
17 | ≤ 0.2 | O=C1CCC(N2Cc3cc(N4CCN(C(=O)CCCc5nc(-c6ncc(NC(=O)Nc7cnc8ccnn8c7C7CCCC7)cc6F)no5)CC4)ccc3C2=O)C(=O)N1 (stereo not drawn) [Compound 77, 1-(7-cyclopentylpyrazolo[1,5-a]pyrimidin-6-yl)-3-[6-[5-[4-[4-[2-(2,6-dioxo-3-piperidyl)-1-oxo-isoindolin-5-yl]piperazin-1-yl]-4-oxo-butyl]-1,2,4-oxadiazol-3-yl]-5-fluoro-3-pyridyl]urea]
18 | ≤ 0.2 | O=C1CCC(N2Cc3cc(NC(=O)CCCc4nc(-c5ncc(NC(=O)Nc6cnc7ccnn7c6C6CCCC6)cc5Cl)no4)ccc3C2=O)C(=O)N1 (stereo not drawn) [Compound 80, 4-[3-[3-chloro-5-[(7-cyclopentylpyrazolo[1,5-a]pyrimidin-6-yl)carbamoylamino]-2-pyridyl]-1,2,4-oxadiazol-5-yl]-N-[2-(2,6-dioxo-3-piperidyl)-1-oxo-isoindolin-5-yl]butanamide]
